These results are taken from patent US20230382925A1, “MODULATORS OF CYSTIC FIBROSIS TRANSMEMBRANE CONDUCTANCE REGULATOR” (VERTEX PHARMACEUTICALS INCORPORATED, priority 2020, published 2023).

What is called pEC50 is the EC50 on a negative log10 scale, so that one unit is a factor of ten.

The structures appear in SMILES notation. pEC50: −log10 of the molar value. Where two headings read alike, the source gives them in different places. A value given as a limit tells only on which side of the number the result lay.

This experiment concerns the target CFTR (Homo sapiens, UniProt P13569). The experiment in a line: Membrane Potential Dye, Enteroid Assay B. Type of experiment: cell-based. Summed up:
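Activity given as % of a triple-combination reference (1 μM and 3 μM correctors, 300 nM acute potentiator). Enteroids were preincubated 18-24 h with compound; chloride efflux then measured 15 min by methyl oxonol fluorescence after forskolin/IBMX/Compound III stimulation in chloride-free buffer containing CaCCinh-A01 and Chicago Sky Blue.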

Where [1] appears, read: Table 10, read-out: Ent. B EC50.

Chain of CFTR (P13569 with tags, fused parts or gaps DEL508-508): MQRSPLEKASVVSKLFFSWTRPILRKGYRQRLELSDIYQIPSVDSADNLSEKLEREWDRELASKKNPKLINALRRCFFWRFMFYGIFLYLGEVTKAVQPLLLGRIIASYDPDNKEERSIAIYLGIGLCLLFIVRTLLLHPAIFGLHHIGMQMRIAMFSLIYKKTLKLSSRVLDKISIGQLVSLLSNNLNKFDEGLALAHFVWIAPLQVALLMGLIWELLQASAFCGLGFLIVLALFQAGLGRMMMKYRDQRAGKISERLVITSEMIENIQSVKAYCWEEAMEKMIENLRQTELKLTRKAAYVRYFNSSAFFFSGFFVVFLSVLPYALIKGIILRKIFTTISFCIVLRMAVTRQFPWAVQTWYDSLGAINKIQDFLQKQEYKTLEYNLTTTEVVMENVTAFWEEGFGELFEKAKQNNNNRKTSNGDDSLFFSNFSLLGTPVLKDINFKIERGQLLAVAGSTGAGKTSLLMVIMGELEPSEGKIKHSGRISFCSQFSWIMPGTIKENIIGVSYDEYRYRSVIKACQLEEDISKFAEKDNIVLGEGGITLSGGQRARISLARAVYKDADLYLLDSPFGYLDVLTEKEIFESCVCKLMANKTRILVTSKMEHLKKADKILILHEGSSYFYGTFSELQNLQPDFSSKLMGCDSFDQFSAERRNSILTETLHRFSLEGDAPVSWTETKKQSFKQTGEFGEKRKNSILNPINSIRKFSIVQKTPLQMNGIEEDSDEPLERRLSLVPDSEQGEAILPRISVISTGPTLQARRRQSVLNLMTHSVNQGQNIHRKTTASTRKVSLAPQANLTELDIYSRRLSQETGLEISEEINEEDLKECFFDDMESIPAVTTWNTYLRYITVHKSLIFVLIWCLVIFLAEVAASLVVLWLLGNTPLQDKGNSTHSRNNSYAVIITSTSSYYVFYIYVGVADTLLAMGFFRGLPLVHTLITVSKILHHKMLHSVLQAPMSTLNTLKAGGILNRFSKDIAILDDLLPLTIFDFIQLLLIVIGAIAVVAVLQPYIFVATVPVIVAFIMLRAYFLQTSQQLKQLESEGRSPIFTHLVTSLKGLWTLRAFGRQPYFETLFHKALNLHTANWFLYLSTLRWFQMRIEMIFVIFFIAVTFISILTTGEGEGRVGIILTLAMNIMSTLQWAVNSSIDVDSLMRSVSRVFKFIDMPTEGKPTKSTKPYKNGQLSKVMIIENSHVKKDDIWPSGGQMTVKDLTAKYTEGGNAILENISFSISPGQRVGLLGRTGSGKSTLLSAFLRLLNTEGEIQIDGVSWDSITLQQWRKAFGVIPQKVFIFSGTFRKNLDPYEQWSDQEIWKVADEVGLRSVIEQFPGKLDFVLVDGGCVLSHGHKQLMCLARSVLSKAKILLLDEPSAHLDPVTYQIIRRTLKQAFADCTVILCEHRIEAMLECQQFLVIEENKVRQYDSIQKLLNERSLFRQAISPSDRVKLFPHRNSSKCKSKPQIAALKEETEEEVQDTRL

`Cc1cccc(CO)c1-c1cc2nc(n1)NS(=O)(=O)c1cccc(c1)C(=O)N(C1CC3(CC3)C1)[C@H](CC(C)C)CO2` [Compound 2, (11R)-6-[2-(Hydroxymethyl)-6-methyl-phenyl]-11-isobutyl-2,2-dioxo-12-spiro[2.3]hexan-5-yl-9-oxa-2λ^6-thia-3,5,12,19-tetrazatricyclo[12.3.1.14,8]nonadeca-1(18),4(19),5,7,14,16-hexaen-13-one]: the “Ent. B Max Activity (%)” value (Table 10) is listed as “++ (++ is 30-60%)”. Moreover, under setting [1], the negative-log EC50 (pEC50) is greater than 6.00. As to `CC(=O)NC1CC(N2C(=O)c3cccc(c3)S(=O)(=O)Nc3nc(cc(-c4c(C)cccc4C)n3)OC[C@H]2CC(C)(C)C)C1` (single isomer, unassigned) [Compound 448], for the setting “Table 9”, the “Ent. B Max Activity (%)” value is “+++ (+++ is >60%)”. Moreover, the pEC50 (Table 9, read-out: Ent. B EC50) was greater than 6.00. As to `Cc1cccc(C)c1-c1cc2nc(n1)NS(=O)(=O)c1cccc(c1)C(=O)N(C1CC3(CC(=O)C3)C1)[C@H](CC(C)(C)C)CO2` [Compound 352], the “Ent. B Max Activity (%)” value (Table 10) is “+++ (+++ is >60%)”. In addition, the pEC50 under setting [1] is greater than 6.00. As to `Cc1cccc(C)c1-c1cc2cc(n1)NS(=O)(=O)c1cccc(c1)C(=O)N(C1CC3(CC3)C1)[C@H](CC(C)C)CO2` [Compound 389], the “Ent. B Max Activity (%)” value is “+++ (+++ is >60%)”. The pEC50 (read-out: Ent. B EC50) was greater than 6.00. As to `COC(=O)N(C)[C@H]1C[C@@]2(C1)C[C@H](N1C(=O)c3cccc(c3)S(=O)(=O)Nc3nc(cc(-c4c(C)cccc4C)n3)OC[C@H]1CC1(C(F)(F)F)CC1)C2` (stereo in doubt) [Compound 259], the “Ent. B Max Activity (%)” value (Table 9) is listed as “+++ (+++ is >60%)”. For the same compound, where the note is “Table 9, read-out: Ent. B EC50”, the pEC50 is greater than 6.00. For `Cc1cccc(C)c1-c1cc2nc(n1)NS(=O)(=O)c1cccc(c1)C(=O)N(C1CC3(C1)CC(O)(CC(C)C)C3)[C@H](CC(C)(C)C)CO2` (stereo in doubt) [Compound 405], where the note is “Table 10”, the “Ent. B Max Activity (%)” value is “+++ (+++ is >60%)”. Besides, the pEC50 under setting [1] is greater than 6.00. Consider `Cc1cccc(C)c1-c1cc2nc(n1)NS(=O)(=O)c1cccc(c1)C(=O)N(C1CC3(CCN(C(=O)OC(C)C)CC3)C1)[C@H](CC(C)(C)C(F)(F)F)CO2` [Compound 421], for which, for the setting “Table 9”, the “Ent. B Max Activity (%)” value is on record as “+++ (+++ is >60%)”. For the same compound, the pEC50 (Table 9, read-out: Ent. B EC50) was greater than 6.00.

In the case of `Cc1cccc(C)c1-c1cc2nc(n1)NS(=O)(=O)c1cccc(c1)C(=O)N([C@H]1C[C@@]3(C[C@H](N(C)C(=O)OC(C)C)C3)C1)[C@H](CC1(C(F)(F)F)CC1)CO2` (stereo partly drawn) [Compound 272], the “Ent. B Max Activity (%)” value (Table 9) is recorded as “+++ (+++ is >60%)”. For the same compound, where the note is “Table 9, read-out: Ent. B EC50”, the pEC50 was greater than 6.00. Regarding `Cc1cccc(C)c1-c1cc2nc(n1)NS(=O)(=O)c1cccc(c1)C(=O)N([C@H]1C[C@@](C)(OC(F)(F)F)C1)[C@H](CC(C)(C)C)CO2` (single isomer, unassigned) [Compound 156], the “Ent. B Max Activity (%)” value (Table 10) was “++ (++ is 30-60%)”. The pEC50 under setting [1] is greater than 6.00.

In the case of `COCCN1CCC2(CC1)CC(N1C(=O)c3cccc(n3)S(=O)(=O)Nc3cc(cc(-c4c(C)cccc4C)n3)OC[C@H]1CC(C)C)C2` [Compound 422], the “Ent. B Max Activity (%)” value (Table 9) is given as “+++ (+++ is >60%)”.

For `COC(=O)NC1(C)CC(N2C(=O)c3cccc(c3)S(=O)(=O)Nc3nc(cc(-c4c(C)cccc4C)n3)OC[C@H]2CC(C)(C)C)C1` (single isomer, unassigned) [Compound 172], the “Ent. B Max Activity (%)” value (Table 10) is “+++ (+++ is >60%)”. Moreover, the pEC50 under setting [1] is greater than 6.00. Turning to `Cc1cccc(C)c1-c1cc2nc(n1)NS(=O)(=O)c1cccc(c1)C(=O)N([C@H]1C[C@H](N)C1)[C@H](CC1(C(F)(F)F)CC1)CO2` (single isomer, unassigned) [Compound 57], for the setting “Table 9”, the “Ent. B Max Activity (%)” value is recorded as “+++ (+++ is >60%)”. Further, for the setting “Table 9, read-out: Ent. B EC50”, the pEC50 is greater than 6.00. Take `Cc1cccc(C)c1-c1cc2nc(n1)NS(=O)(=O)c1cccc(c1)C(=O)N(C1CC(CO)(C(C)(C)O)C1)[C@H](CC(C)(C)C)CO2` (single isomer, unassigned) [Compound 160]: under “Table 10”, the “Ent. B Max Activity (%)” value is given as “+++ (+++ is >60%)”. Also, the pEC50 under setting [1] is greater than 6.00. On to `Cc1cccc(C)c1-c1cc2nc(n1)NS(=O)(=O)c1cccc(c1)C(=O)N(C1CC(NC34CC(C3)C4)C1)[C@H](CC(C)C)CO2` (stereo partly drawn) [Compound 73, (11R)-12-[3-(1-Bicyclo[1.1.1]pentanylamino)cyclobutyl]-6-(2,6-dimethylphenyl)-11-isobutyl-2,2-dioxo-9-oxa-2λ^6-thia-3,5,12,19-tetrazatricyclo[12.3.1.14,8]nonadeca-1(18),4(19),5,7,14,16-hexaen-13-one], for which, for the setting “Table 9”, the “Ent. B Max Activity (%)” value is “+++ (+++ is >60%)”. The pEC50 (Table 9, read-out: Ent. B EC50) is greater than 6.00. Taken in the same sequence, the figures for `COCCCN(C)[C@H]1C[C@@H](N2C(=O)c3cccc(c3)S(=O)(=O)Nc3nc(cc(-c4c(C)cccc4C)n3)OC[C@H]2CC(C)C)C1` (stereo in doubt) [Compound 379] were “+++ (+++ is >60%)” and greater than 6.00. For `Cc1cccc(C)c1-c1cc2nc(n1)NS(=O)(=O)c1cccc(c1)C(=O)N(C1CC(NC3CCC(C)(C)CC3)C1)[C@H](CC(C)C)CO2` (stereo partly drawn) [Compound 70, (11R)-12-[3-[(4,4-Dimethylcyclohexyl)amino]cyclobutyl]-6-(2,6-dimethylphenyl)-11-isobutyl-2,2-dioxo-9-oxa-2λ^6-thia-3,5,12,19-tetrazatricyclo[12.3.1.14,8]nonadeca-1(18),4(19),5,7,14,16-hexaen-13-one], the “Ent. B Max Activity (%)” value (Table 9) is recorded as “+++ (+++ is >60%)”. For the setting “Table 9, read-out: Ent. B EC50”, the pEC50 is greater than 6.00.

Regarding `Cc1cccc(C)c1-c1cc2nc(n1)NS(=O)(=O)c1cccc(c1)C(=O)N(C1CC3(CCN(C4CC(F)(F)C4)CC3)C1)[C@H](CC(C)C)CO2` [Compound 276], the “Ent. B Max Activity (%)” value (Table 9) was “+++ (+++ is >60%)”. Moreover, the pEC50 (Table 9, read-out: Ent. B EC50) was greater than 6.00.

`Cc1cccc(C)c1-c1cc2nc(n1)NS(=O)(=O)c1cccc(c1)C(=O)N([C@H]1C[C@@H](OC(C)C)C1)[C@H](CC(C)C)CO2` (single isomer, unassigned) [Compound 45]: the “Ent. B Max Activity (%)” value (Table 9) is given as “+++ (+++ is >60%)”. Moreover, under “Table 9, read-out: Ent. B EC50”, the negative logarithm of the EC50 (pEC50) is greater than 6.00. `Cc1cccc(C)c1-c1cc2nc(n1)NS(=O)(=O)c1cccc(c1)C(=O)N(C1CC3(C1)CC(CO)(CO)C3)[C@H](CC(C)(C)C)CO2` [Compound 354]: the “Ent. B Max Activity (%)” value (Table 10) is listed as “+++ (+++ is >60%)”. Moreover, under setting [1], the negative-log EC50 (pEC50) is greater than 6.00. As to `COC(=O)NC1CC(N2C(=O)c3cccc(c3)S(=O)(=O)Nc3nc(cc(-c4c(C)cccc4C)n3)OC[C@H]2CC2(C(F)(F)F)CC2)C1` (single isomer, unassigned) [Compound 53], the “Ent. B Max Activity (%)” value (Table 9) is given as “+++ (+++ is >60%)”. Also, the pEC50 (Table 9, read-out: Ent. B EC50) was greater than 6.00.

Consider `Cc1cccc(C)c1-c1cc2nc(n1)NS(=O)(=O)c1cccc(c1)C(=O)N(C1CC3(C1)CC(C(C)(C)O)C3)[C@H](CC(C)(C)C)CO2` (single isomer, unassigned) [Compound 116], for which the “Ent. B Max Activity (%)” value (Table 10) was “+++ (+++ is >60%)”. In addition, the pEC50 under setting [1] is greater than 6.00. As to `Cc1cccc(C)c1-c1cc2nc(n1)NS(=O)(=O)c1cccc(c1)C(=O)N([C@H]1C[C@@]3(C[C@H](NC(C)C)C3)C1)[C@H](CC1(C(F)(F)F)CC1)CO2` (stereo partly drawn) [Compound 266], the “Ent. B Max Activity (%)” value (Table 9) is “+++ (+++ is >60%)”. Under “Table 9, read-out: Ent. B EC50”, the pEC50 is greater than 6.00. With `Cc1cccc(C)c1-c1cc2nc(n1)NS(=O)(=O)c1cccc(c1)C(=O)N(C1CC3(COC(=O)N3)C1)[C@H](CC(C)(C)C)CO2` (single isomer, unassigned) [Compound 176], under “Table 10”, the “Ent. B Max Activity (%)” value is reported as “++ (++ is 30-60%)”. Moreover, the negative-log EC50 (pEC50) under setting [1] was greater than 6.00. For `COC1CCN(C(=O)C2CC(N3C(=O)c4cccc(c4)S(=O)(=O)Nc4nc(cc(-c5c(C)cccc5C)n4)OC[C@H]3CC(C)C)C2)CC1` (stereo partly drawn) [Compound 308], the “Ent. B Max Activity (%)” value is “+++ (+++ is >60%)”. Moreover, the pEC50 (read-out: Ent. B EC50) was greater than 6.00. Turning to `Cc1cccc(C)c1-c1cc2nc(n1)NS(=O)(=O)c1cccc(c1)C(=O)N(C1CC3(C1)CC(C)(O)C3)[C@H](CC(C)(C)C)CO2` (single isomer, unassigned) [Compound 119], the “Ent. B Max Activity (%)” value (Table 10) is recorded as “+++ (+++ is >60%)”. Under setting [1], the pEC50 is greater than 6.00.

With `Cc1cccc(C)c1-c1cc2nc(n1)NS(=O)(=O)c1cccc(c1)C(=O)N([C@H]1C[C@@H](N3CCCCC3)C1)[C@H](CC(C)C)CO2` [Compound 388], the “Ent. B Max Activity (%)” value (Table 9) is “+++ (+++ is >60%)”. Besides, the negative-log EC50 (pEC50) (Table 9, read-out: Ent. B EC50) was greater than 6.00. For the compound `[H][C@]1(N2C(=O)c3cccc(c3)S(=O)(=O)Nc3nc(cc(-c4c(C)cccc4C)n3)OC[C@H]2CC(C)(C)C)C[C@@]2(C[C@H](NC(=O)OC3CCC3)C2)C1` (stereo in doubt) [Compound 355], where the note is “Table 10”, the “Ent. B Max Activity (%)” value is “++ (++ is 30-60%)”. The pEC50 under setting [1] was greater than 6.00. Turning to `Cc1cccc(C)c1-c1cc2nc(n1)NS(=O)(=O)c1cccc(c1)C(=O)N(C1CC3(CCN(C(=O)[C@H](C)O)CC3)C1)[C@H](CC(C)C)CO2` [Compound 456], the “Ent. B Max Activity (%)” value (Table 9) is listed as “+++ (+++ is >60%)”. The pEC50 (Table 9, read-out: Ent. B EC50) is greater than 6.00. Taken in the same sequence, the figures for `Cc1cccc(C)c1-c1cc2nc(n1)NS(=O)(=O)c1cccc(c1)C(=O)N(C1CC(N3CCN(C)C(=O)C3)C1)[C@H](CC(C)C)CO2` (stereo partly drawn) [Compound 384] were “+++ (+++ is >60%)” and greater than 6.00. Taken in the same sequence, the figures for `CNC1CC2(C1)CC(N1C(=O)c3cccc(c3)S(=O)(=O)Nc3nc(cc(-c4c(C)cccc4C)n3)OC[C@H]1CC(C)C)C2` (stereo in doubt) [Compound 282] were “+++ (+++ is >60%)” and greater than 6.00. As for `Cc1cccc(C)c1-c1cc2nc(n1)NS(=O)(=O)c1cccc(c1)C(=O)N(C1CC3(CCN(CC(F)F)CC3)C1)[C@H](CC(C)C)CO2` [Compound 322], the “Ent. B Max Activity (%)” value is given as “+++ (+++ is >60%)”. Also, the pEC50 (read-out: Ent. B EC50) was greater than 6.00. As to `Cc1cccc(C)c1-c1cc2nc(n1)NS(=O)(=O)c1cccc(c1)C(=O)N(C1CCN(C)CC1)CC(CC(C)C)CO2` (stereo not drawn) [Compound 440], the “Ent. B Max Activity (%)” value (Table 9) is “++ (++ is 30-60%)”. Besides, the pEC50 (Table 9, read-out: Ent. B EC50) was 5.52 to 6.00.
